# Publication PMC12650355 (2025)
# Columns and labels:
# [1] = tested on: Apt2 (DNA, aptamer) ACTTCAGTGAGTTGTCCCACGGTCGGCGAGTCGGTGGTAG; experiment: SPR (Biacore T200), single concentration; details: 100 mM Na+, 5 mM K+, 2 mM Mg2+, 1 mM Ca2+ (sample diluent Buf1), diluent Buf1 pH 7.4, SA-coated CM5 chip
# [2] = tested on: Apt2 (DNA, aptamer) ACTTCAGTGAGTTGTCCCACGGTCGGCGAGTCGGTGGTAG; experiment: SPR (Biacore T200), steady-state fit; details: 100 mM Na+, 5 mM K+, 2 mM Mg2+, 1 mM Ca2+ (sample diluent Buf1); running buffer PBS; diluent Buf1, 20 mM Tris-HCl pH 7.4; SA-coated CM5 chip
# [3] = 6.4 μM tested, running buffer PBS not restated
Compound,"binding [1, 3]",also measured
CO/N=C(\C(=O)N[C@@H]1C(=O)N2C(C(=O)O)=C(COC(N)=O)CS[C@H]12)c1ccco1,,"binding ([1]; 6.4 μM tested (printed CN, CXM)): no"
CS(=O)(=O)c1ccc([C@@H](O)[C@@H](CF)NC(=O)C(Cl)Cl)cc1,no,
CS(=O)(=O)c1ccc([C@@H](O)[C@@H](CO)NC(=O)C(Cl)Cl)cc1,no,
O=C(N[C@H](CO)[C@H](O)c1ccc([N+](=O)[O-])cc1)C(Cl)Cl,,KD [2]: 141 nM
